Type in all cases: cell-based
Test [1] has as its target T1, RAMP3-CLR (AM2 receptor) (Homo sapiens, UniProt O60896+Q16602).
T1 construct: FLAG; expressed in transfected cells; host or cells: HEK-293 or HEK-293S cells, transient transfection, 1:1 RAMP:CLR
In words: cAMP accumulation, HEK-293S cells, RAMP3 + CLR. Further details: dose or concentration left out as unconfirmed. Particulars: HEK293S, mean ± S.E., n = 5. On the procedure:
(§1) HEK-293 cells, provided by Dr. Jügen Müller (University of Aston), were cultured in DMEM supplemented with 10% heat-inactivated FBS and kept at 37 °C in a humidified 95% air, 5% CO2 incubator. HEK-293S cells (a gift from AstraZeneca) were cultured in DMEM supplemented with 8% heat-inactivated FBS and kept at 37 °C in a humidified 95% air, 5% CO2 incubator. HEK-293 cells were transfected with FuGENE 6 (Roche Applied Science) in accordance with the manufacturer's instructions using a 1:3 (w:v) DNA:FuGENE ratio and a 1:1 ratio of RAMP to CLR. HEK-293S cells were seeded into 96-well poly-D-lysine-coated plates at a density of 15,000 cells/well (determined using a Countess^TM cell counter, Invitrogen) 1 day prior to transfection. HEK-293S cells were transiently transfected as described previously ([38]) using a 1:1 ratio of RAMP to CLR. The transfected cell lines were grown for 24–48 h prior to assaying.
The transfected HEK-293 cells were washed in PBS, resuspended in stimulation buffer (PBS containing 0.1% BSA and 0.5 mM IBMX), and seeded at 2000 cells/well in 384-well white Optiplates. Ligands were added in the range of 1 pM to 1 mM, and cAMP accumulation was measured after 30 min of stimulation using a LANCE® cAMP detection kit (PerkinElmer Life Sciences). […] Plates were read using a Mithras LB 940 multimode microplate reader (Berthold Technologies). […]

The target of test [2] is T1, RAMP3-CLR (AM2 receptor). In words: (Ca^2+)i mobilization, HEK-293 cells, RAMP3 + CLR. To be noted: HEK293, percentage of maximal (Ca^2+)i release with 10 μM ionomycin, mean ± S.E., n = 5. Here is the method: as §1
Transfected HEK-293 cells were grown to confluence in black, clear bottomed, 96-well plates. […] Ligands were added robotically using a Mithras LB 940 multimode microplate reader in the range of 10 pM to 1 μM, and fluorescence was determined immediately post-injection with an excitation wavelength set to 485 nm and an emission wavelength set to 535 nm. […] Peak magnitude was calculated using five-point smoothing followed by correction against background fluorescence. […]

The target in test [3] is T2, RAMP1-CLR (CGRP receptor) (Homo sapiens, UniProt O60894+Q16602).
T2 construct: FLAG; expressed in transfected cells; host or cells: HEK-293 or HEK-293S cells, transient transfection, 1:1 RAMP:CLR
In words: cAMP accumulation, HEK-293S cells, RAMP1 + CLR. To be noted: HEK293S, untreated, percentage of maximal cAMP with 100 μM forskolin, mean ± S.E., n = 5. On the procedure:
HEK-293 cells were transfected with FuGENE 6 (Roche Applied Science) in accordance with the manufacturer's instructions using a 1:3 (w:v) DNA:FuGENE ratio and a 1:1 ratio of RAMP to CLR. […] The transfected cell lines were grown for 24–48 h prior to assaying.
The transfected HEK-293 cells were washed in PBS, resuspended in stimulation buffer (PBS containing 0.1% BSA and 0.5 mM IBMX), and seeded at 2000 cells/well in 384-well white Optiplates. Ligands were added in the range of 1 pM to 1 mM, and cAMP accumulation was measured after 30 min of stimulation using a LANCE® cAMP detection kit (PerkinElmer Life Sciences). […] Plates were read using a Mithras LB 940 multimode microplate reader (Berthold Technologies). […] Values were converted to concentration using a cAMP standard curve performed in parallel.
Data analysis for cAMP assays was performed in GraphPad Prism 6.0f (San Diego, CA). […] These values were then used to quantify signaling bias as change in log (τ/Ka) relative to the natural cognate ligand for the respective receptor ([41]). […] Statistical differences were analyzed using one-way ANOVA or Student's t test as appropriate with post hoc Bonferroni's or Dunnett's multiple comparisons, and p < 0.05 was considered significant. […] To quantitate the ligand-dependent response in the yeast system, a strain lacking GPA1 (MMY11), grown in rich medium, was used as a standard ([72]). […]

The Emax is the maximal effect, on the per cent scale that the assay sets.

T1 sequence (Q16602 23-461): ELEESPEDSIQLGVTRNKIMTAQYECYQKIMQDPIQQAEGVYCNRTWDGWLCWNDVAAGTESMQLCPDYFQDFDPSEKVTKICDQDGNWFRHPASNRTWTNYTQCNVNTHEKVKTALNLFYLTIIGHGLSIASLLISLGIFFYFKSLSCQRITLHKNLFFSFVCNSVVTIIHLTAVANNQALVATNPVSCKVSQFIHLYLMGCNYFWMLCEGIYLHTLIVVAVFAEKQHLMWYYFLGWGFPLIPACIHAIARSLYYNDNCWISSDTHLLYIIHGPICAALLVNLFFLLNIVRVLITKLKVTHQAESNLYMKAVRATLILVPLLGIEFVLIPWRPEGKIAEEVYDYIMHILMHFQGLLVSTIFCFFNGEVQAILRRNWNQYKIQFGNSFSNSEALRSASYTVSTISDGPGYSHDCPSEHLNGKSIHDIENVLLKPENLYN
T1 sequence (O60896 24-148): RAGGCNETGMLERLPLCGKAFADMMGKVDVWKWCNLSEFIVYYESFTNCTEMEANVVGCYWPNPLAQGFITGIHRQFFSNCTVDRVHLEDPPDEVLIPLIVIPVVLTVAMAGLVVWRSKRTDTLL
T2 sequence (Q16602 23-461): as the sequence (Q16602 23-461) above
T2 sequence (O60894 27-148): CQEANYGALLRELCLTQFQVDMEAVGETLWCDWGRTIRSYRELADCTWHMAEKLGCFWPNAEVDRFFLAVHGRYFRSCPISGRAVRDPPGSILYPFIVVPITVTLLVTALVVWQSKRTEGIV

As for `CC[C@H](C)[C@H](NC(=O)[C@H](CCC(N)=O)NC(=O)[C@H](Cc1c[nH]cn1)NC(=O)[C@H](C)NC(=O)[C@H](CC(C)C)NC(=O)[C@H](CCCCN)NC(=O)[C@H](CCC(N)=O)NC(=O)[C@@H](NC(=O)[C@@H](NC(=O)[C@@H]1CSSC[C@H](NC(=O)CNC(=O)[C@H](Cc2ccccc2)NC(=O)[C@H](CO)NC(=O)[C@H](CCCNC(=N)N)NC(=O)[C@H](CC(C)C)NC(=O)CNC(=O)[C@H](CCC(N)=O)NC(=O)[C@H](Cc2ccccc2)NC(=O)[C@H](CC(N)=O)NC(=O)[C@H](CC(N)=O)NC(=O)[C@H](CCSC)NC(=O)[C@H](CO)NC(=O)[C@H](CCC(N)=O)NC(=O)[C@H](CCCNC(=N)N)NC(=O)[C@@H](N)Cc2ccc(O)cc2)C(=O)N[C@@H](CCCNC(=N)N)C(=O)N[C@@H](Cc2ccccc2)C(=O)NCC(=O)N[C@@H]([C@@H](C)O)C(=O)N1)[C@@H](C)O)C(C)C)C(=O)N[C@@H](Cc1ccc(O)cc1)C(=O)N[C@@H](CCC(N)=O)C(=O)N[C@@H](Cc1ccccc1)C(=O)N[C@H](C(=O)N[C@@H](CC(=O)O)C(=O)N[C@@H](CCCCN)C(=O)N[C@@H](CC(=O)O)C(=O)N[C@@H](CCCCN)C(=O)N[C@@H](CC(=O)O)C(=O)N[C@@H](CC(N)=O)C(=O)N[C@H](C(=O)N[C@@H](C)C(=O)N1CCC[C@H]1C(=O)N[C@@H](CCCNC(=N)N)C(=O)N[C@@H](CO)C(=O)N[C@@H](CCCCN)C(=O)N[C@H](C(=O)N[C@@H](CO)C(=O)N1CCC[C@H]1C(=O)N[C@@H](CCC(N)=O)C(=O)NCC(=O)N[C@@H](Cc1ccc(O)cc1)C(N)=O)[C@@H](C)CC)C(C)C)[C@@H](C)O` [AM, adrenomedullin], the Emax at RAMP3-CLR (AM2 receptor) [1] was found to be 39.1 ± 1.2%; at RAMP3-CLR (AM2 receptor) [2] it was 56.7 ± 6.6%; in test [3] it was 60 ± 3.1%.

Source of the values: article PMC5063977 (The Journal of Biological Chemistry, 2016).
